Experimental data reported in ChEMBL document CHEMBL5465560, “Selectivity Literature for EUbOPEN Chemogenomic Library” (2024).

Assays:
[1] = biological target: Transcription initiation factor TFIID subunit 1 (Homo sapiens) (UniProt P21675); test: Selectivity interaction (Human bromodomain panel (DSF assay)) EUB0000233b TAF1
[2] = biological target: Serine/threonine-protein kinase NIM1 (Homo sapiens, UniProt Q8IY84); test: Selectivity interaction (KinomeScan (DiscoverX)) EUB0000595a NIM1K; settings: at 10 µM
Sequence of Serine/threonine-protein kinase NIM1 (Q8IY84 whole entry): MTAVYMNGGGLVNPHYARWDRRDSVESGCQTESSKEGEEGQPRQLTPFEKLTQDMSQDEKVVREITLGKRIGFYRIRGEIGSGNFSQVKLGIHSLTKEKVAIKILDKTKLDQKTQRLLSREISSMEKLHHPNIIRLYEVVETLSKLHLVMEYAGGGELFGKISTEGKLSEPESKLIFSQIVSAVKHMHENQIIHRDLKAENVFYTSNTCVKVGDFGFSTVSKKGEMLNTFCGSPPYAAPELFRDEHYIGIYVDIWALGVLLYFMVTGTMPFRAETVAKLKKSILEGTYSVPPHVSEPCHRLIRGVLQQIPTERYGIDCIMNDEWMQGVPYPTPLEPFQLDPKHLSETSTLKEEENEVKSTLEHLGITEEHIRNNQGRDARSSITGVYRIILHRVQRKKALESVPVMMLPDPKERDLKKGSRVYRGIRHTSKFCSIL

[3] = biological target: T1, Dual specificity protein kinase TTK (Homo sapiens) (UniProt P33981); test: Selectivity interaction (Kinase panel (DSF assay)) EUB0001559a TTK
T1 sequence (whole entry): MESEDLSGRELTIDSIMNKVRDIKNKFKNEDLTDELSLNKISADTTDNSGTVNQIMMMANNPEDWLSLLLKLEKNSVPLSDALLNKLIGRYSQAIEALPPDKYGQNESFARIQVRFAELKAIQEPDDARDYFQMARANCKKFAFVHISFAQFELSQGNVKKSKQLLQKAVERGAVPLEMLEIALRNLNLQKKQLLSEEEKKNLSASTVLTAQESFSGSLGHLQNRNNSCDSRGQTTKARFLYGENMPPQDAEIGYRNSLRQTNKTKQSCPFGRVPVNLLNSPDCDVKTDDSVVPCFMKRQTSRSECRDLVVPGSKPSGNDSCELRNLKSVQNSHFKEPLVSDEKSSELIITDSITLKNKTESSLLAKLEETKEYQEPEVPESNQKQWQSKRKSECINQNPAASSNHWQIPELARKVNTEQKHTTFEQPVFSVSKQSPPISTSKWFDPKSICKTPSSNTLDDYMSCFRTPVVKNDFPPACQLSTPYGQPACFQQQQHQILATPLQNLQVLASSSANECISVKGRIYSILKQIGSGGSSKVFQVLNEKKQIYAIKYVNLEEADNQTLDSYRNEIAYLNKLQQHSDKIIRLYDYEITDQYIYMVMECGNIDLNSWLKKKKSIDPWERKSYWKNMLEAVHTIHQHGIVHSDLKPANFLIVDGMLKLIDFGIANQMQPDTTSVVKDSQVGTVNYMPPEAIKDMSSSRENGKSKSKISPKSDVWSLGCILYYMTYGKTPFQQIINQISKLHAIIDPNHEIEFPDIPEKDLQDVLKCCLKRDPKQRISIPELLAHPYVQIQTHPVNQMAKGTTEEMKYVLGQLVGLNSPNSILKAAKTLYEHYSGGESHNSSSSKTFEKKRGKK

[4] = biological target: T2, Mitogen-activated protein kinase kinase kinase 12 (Homo sapiens) (UniProt Q12852); settings: at 10 µM
T2 sequence (whole entry): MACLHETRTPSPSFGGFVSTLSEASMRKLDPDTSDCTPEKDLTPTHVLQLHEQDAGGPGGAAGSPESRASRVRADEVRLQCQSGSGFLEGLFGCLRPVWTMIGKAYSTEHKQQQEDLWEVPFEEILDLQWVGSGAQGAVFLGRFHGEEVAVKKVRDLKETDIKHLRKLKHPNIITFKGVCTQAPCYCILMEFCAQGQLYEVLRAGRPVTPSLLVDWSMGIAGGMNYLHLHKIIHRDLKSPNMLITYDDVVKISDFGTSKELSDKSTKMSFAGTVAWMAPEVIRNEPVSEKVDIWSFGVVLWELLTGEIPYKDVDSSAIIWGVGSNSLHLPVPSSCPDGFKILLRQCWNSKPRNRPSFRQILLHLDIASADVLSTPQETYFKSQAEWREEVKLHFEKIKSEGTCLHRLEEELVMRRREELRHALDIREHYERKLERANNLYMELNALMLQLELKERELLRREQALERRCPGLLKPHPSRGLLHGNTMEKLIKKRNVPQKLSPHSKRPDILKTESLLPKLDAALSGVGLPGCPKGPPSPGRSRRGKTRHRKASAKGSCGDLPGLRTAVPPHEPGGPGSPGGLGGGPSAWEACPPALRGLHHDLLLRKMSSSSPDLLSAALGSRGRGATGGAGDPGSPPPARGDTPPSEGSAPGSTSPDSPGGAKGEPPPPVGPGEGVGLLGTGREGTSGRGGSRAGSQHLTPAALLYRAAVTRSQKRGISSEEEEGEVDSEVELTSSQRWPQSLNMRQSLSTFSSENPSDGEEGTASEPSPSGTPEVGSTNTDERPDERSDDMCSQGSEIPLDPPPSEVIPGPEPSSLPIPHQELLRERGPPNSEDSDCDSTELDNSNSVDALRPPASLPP

[5] = biological target: Serine/threonine-protein kinase 26 (Homo sapiens, UniProt Q9P289); test: Selectivity interaction (KinomeScan (DiscoverX)) EUB0001049a STK26; settings: at 1 µM
Sequence of Serine/threonine-protein kinase 26 (Q9P289 2-416 limits assumed): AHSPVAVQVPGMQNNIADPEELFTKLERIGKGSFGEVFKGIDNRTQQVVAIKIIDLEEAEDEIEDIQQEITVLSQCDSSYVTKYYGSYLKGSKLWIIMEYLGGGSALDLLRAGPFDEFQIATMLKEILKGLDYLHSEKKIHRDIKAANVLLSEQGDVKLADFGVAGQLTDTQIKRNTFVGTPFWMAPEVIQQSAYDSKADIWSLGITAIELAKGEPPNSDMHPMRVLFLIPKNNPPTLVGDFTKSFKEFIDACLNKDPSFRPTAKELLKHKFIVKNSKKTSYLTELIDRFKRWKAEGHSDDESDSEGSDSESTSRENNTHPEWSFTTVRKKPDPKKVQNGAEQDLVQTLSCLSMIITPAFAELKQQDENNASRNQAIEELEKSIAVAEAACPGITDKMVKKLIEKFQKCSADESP

[6] = biological target: T3, Ephrin type-A receptor 6 (Homo sapiens) (UniProt Q9UF33); test: Selectivity interaction (ProQinase) EUB0000171b EPHA6
T3 sequence (whole entry): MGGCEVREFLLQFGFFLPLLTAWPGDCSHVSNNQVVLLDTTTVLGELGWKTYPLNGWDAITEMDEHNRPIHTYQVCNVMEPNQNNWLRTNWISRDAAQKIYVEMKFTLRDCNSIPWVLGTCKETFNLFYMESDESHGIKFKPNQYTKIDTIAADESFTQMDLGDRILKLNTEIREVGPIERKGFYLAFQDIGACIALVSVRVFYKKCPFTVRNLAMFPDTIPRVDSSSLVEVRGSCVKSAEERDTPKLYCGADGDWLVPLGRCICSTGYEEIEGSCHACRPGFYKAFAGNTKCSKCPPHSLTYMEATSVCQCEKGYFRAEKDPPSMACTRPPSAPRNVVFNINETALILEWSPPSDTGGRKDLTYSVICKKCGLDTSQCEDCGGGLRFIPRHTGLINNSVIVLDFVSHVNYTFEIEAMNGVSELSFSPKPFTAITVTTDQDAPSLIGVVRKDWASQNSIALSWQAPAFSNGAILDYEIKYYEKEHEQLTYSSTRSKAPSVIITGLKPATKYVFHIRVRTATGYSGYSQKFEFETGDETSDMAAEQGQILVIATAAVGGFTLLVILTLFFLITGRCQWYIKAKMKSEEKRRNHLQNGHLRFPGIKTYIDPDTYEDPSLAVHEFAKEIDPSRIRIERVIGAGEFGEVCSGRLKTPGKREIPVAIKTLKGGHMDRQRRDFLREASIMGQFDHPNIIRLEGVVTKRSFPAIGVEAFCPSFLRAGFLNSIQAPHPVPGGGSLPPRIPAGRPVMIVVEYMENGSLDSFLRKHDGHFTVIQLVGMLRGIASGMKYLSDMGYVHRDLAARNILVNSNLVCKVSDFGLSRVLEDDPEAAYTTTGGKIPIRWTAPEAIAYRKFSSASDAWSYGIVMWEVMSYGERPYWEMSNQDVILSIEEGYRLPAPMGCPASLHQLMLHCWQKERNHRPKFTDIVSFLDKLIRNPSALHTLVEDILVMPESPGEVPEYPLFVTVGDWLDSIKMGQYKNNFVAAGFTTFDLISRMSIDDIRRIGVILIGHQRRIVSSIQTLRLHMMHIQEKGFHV

[7] = biological target: Death-associated protein kinase 1 (Homo sapiens, UniProt P53355); test: Selectivity interaction (Kinase panel (Invitrogen)) EUB0000639a DAPK1; settings: at 200 nM
Sequence of Death-associated protein kinase 1 (P53355 whole entry, looked up): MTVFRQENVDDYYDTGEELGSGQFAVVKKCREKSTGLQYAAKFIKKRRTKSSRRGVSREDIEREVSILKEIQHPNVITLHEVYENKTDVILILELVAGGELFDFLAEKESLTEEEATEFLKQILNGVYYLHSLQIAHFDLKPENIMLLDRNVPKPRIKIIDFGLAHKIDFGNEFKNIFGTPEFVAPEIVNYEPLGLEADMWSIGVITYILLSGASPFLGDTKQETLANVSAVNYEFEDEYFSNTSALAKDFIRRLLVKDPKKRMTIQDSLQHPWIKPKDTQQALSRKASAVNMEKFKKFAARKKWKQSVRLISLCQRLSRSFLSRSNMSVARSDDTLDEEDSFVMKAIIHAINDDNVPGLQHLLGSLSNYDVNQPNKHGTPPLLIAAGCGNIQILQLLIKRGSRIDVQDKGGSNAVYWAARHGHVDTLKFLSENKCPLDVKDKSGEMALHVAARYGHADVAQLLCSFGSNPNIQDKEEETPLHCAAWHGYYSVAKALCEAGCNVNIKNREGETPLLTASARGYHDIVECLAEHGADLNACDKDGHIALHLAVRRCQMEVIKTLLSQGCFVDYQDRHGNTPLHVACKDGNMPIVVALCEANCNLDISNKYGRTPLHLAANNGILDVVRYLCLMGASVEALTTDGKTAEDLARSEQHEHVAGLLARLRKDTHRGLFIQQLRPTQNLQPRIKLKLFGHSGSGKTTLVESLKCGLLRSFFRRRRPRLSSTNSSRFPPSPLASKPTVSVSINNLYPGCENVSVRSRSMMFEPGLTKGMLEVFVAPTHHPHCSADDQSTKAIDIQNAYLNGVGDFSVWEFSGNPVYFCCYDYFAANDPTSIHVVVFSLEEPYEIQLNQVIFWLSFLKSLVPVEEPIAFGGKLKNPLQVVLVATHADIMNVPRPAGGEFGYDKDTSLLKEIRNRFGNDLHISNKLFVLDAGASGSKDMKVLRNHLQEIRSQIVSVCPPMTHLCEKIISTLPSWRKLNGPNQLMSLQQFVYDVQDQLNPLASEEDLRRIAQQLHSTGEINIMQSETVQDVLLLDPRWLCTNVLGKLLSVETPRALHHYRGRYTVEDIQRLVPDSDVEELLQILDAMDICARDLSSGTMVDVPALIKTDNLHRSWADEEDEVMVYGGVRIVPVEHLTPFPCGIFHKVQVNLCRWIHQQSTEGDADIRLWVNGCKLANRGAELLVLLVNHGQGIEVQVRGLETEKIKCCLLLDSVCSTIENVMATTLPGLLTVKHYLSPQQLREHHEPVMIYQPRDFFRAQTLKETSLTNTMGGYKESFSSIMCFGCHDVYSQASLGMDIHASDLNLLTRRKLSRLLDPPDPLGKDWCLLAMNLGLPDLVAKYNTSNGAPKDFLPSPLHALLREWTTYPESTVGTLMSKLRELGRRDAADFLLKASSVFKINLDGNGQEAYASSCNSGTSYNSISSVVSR

Sequence of Transcription initiation factor TFIID subunit 1 (Homo sapiens) (P21675 whole entry): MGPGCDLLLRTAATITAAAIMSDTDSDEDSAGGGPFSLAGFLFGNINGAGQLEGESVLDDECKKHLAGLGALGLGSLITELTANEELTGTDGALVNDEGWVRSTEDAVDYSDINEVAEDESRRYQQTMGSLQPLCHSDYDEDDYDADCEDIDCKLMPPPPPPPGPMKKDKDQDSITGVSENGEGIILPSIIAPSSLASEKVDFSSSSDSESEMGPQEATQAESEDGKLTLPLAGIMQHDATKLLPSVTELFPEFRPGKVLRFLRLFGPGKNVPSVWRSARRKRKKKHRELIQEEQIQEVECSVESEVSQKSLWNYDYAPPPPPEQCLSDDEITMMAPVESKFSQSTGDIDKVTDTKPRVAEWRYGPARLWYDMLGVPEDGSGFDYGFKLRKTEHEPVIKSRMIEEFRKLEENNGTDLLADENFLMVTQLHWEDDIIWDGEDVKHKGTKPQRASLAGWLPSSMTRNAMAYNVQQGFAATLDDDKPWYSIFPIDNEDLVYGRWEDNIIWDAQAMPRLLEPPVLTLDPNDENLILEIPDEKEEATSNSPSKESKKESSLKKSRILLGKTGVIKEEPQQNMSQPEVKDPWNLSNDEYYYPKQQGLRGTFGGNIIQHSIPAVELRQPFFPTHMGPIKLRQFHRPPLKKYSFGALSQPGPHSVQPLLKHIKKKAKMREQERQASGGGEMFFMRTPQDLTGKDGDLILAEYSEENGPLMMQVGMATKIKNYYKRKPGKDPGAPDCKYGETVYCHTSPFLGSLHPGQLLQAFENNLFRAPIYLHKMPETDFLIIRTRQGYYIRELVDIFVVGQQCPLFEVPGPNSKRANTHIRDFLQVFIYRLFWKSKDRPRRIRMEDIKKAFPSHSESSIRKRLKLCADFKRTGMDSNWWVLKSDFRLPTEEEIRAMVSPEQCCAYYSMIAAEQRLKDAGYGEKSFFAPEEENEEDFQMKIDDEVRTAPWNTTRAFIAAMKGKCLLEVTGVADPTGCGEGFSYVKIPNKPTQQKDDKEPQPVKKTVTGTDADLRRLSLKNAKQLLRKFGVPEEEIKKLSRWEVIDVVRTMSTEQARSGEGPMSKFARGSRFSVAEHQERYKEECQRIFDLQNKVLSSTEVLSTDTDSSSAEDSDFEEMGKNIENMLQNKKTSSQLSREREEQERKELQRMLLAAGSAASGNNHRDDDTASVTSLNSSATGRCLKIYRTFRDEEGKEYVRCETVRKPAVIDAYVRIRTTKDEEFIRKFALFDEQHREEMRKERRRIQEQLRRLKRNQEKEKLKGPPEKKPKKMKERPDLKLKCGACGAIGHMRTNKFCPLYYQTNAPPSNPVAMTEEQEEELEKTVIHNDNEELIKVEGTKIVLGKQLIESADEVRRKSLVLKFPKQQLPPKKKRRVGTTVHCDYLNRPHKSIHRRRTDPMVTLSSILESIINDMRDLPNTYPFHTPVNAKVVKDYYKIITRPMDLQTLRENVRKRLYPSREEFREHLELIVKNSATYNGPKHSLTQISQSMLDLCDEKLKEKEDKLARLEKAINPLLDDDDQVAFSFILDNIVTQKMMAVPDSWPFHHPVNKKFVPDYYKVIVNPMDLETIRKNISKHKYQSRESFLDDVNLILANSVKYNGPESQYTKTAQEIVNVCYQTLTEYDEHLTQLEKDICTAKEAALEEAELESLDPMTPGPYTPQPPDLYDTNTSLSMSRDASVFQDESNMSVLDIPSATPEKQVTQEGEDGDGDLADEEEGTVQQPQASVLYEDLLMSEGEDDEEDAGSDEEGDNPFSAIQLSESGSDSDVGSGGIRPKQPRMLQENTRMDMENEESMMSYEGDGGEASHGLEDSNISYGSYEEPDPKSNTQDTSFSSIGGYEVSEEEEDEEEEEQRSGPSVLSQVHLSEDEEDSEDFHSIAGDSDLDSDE

**Q.** With `CN(C)CCCOc1ccc(-c2cc(NCCCn3cccn3)nc(S(C)(=O)=O)n2)cc1` as the compound, how does the dTM [1] read?
**A.** < 2 K

**Q.** With `COCC(=O)NC/C=C/c1ccc2ncnc(Nc3ccc(Oc4ccc(C)nc4)c(C)c3)c2c1` [CP-724714] as the compound, how does the % of control [2] read?
**A.** 87%

**Q.** With `CN(C(=O)c1cnn2cccnc12)c1cc2c(cc1N1CCOCC1)C(=O)N(C[C@@H](F)C(C)(C)O)C2` as the compound, how does the dTM [3] read?
**A.** -0.3 K

**Q.** How did the % of control [4] turn out when `Cc1cc([C@@H](C)Nc2ccccc2C(=O)O)c2nc(N3CCOCC3)cc(=O)n2c1` [AZD-6482] was run?
**A.** 85%

**Q.** Which % of control [5] does the source give for `COc1cc(Nc2nc(C)cc(-c3cnn4nc(OC)ccc34)n2)cc(C(F)(F)F)c1` here?
**A.** 85%

**Q.** Which results are given for `C=CC(=O)Nc1cccc(C(=O)Nc2ccc(Nc3cc(-c4[nH]c(SC)nc4C)ccn3)cc2)c1`?
**A.** % of control ([6]; at 1 µM): 99%; % of control ([6]; at 5 µM): 100%

**Q.** Which % of inhibition [7] does the source give for `CC[C@@H]1[C@H](F)C(=O)N[C@@H]1COc1nccc2cc(C(N)=O)c(OC)cc12` [ZIMLOVISERTIB] here?
**A.** 16.2%
